Measurements from PMC8042770, “Odorant Receptors for Detecting Flowering Plant Cues Are Functionally Conserved across Moths and Butterflies” (Molecular Biology and Evolution, 2020).
pEC50: −log10 of the molar value.

Key:
HarmOR59 = HarmOR59 (Helicoverpa armigera, UniProt A0A7T3KAU6); experiment: Xenopus oocyte two-electrode voltage clamp, HarmOR59 + Orco; format: cell-based
Description: In order to expand our analysis on the response properties of HarmORs, we conducted dose–response analyses for the 28 functional HarmORs. […] Six HarmORs (OR3, 22, 48, 50, 56, and 66) could not be activated by any ligand at 10^−5 M. For the other 22 HarmORs, dose–response curves were generated and EC50 values of their major ligands were calculated (fig. 2A and supplementary table S2, Supplementary Material online). The HarmOR repertoire was highly efficient in terpene detection, since the lowest EC50 values were obtained for such compounds. Many of these terpenes have been proposed to be defensive chemicals of plants. […] DMNT is also one of the oviposition deterring compounds found in larval frass of some Lepidoptera species such as S. littoralis ([Anderson et al. 1993]).
Functional characterization of individual ORs was performed by heterologous expression in Xenopus oocytes combined with a two-electrode voltage-clamp system ([Wang et al. 2010]). Briefly, the full-length gene of each OR and Orco were subcloned into the eukaryotic expression vector pT7TS. cRNAs were generated from linearized expression vectors using the mMESSAGE mMACHINE T7 kit (Ambion, Austin, TX). Then, the cRNA mixture of ORx and Orco (27.6 ng each) was injected (Nanoliter 2010, WPI Inc., Sarasota, FL) into oocytes (stage V–VII). The respective Orcos of different species were used for functional studies of OR42 orthologs except for the four butterfly species (V. tameamea, P. xuthus, D. plexippus, and P. rapae), in which we used the Orco from P. xuthus. After incubation in nutrient solution at 18 °C for 3–5 days, the response profile of each oocyte to multiple plant odorants was recorded via a two-electrode voltage clamp (OC-725C oocyte clamp, Warner Instruments, Hamden, CT) at a holding potential of −80 mV. Data were acquired by using a Digidata 1440 A and were analyzed by pCLAMP 10.2 software (Axon Instruments Inc., Union City, CA).
Stock solutions of each odorant were prepared at 1 M using DMSO as a solvent, and each odorant was diluted in 1× Ringer’s solution to the indicated concentrations for electrophysiological recording. For functional screening of each HarmOR, a panel of 67 odorants belonging to three types of chemical classes: terpenes, aromatics, and aliphatics (short-chain fatty acid) were used (supplementary table S1, Supplementary Material online). For functional studies of OR42 orthologs from different species, six odorants including PAA, benzaldehyde, (E)-2-hexen-1-al, cinnamaldehyde, 2-phenylethanol, and heptanal were used.

EsemOR19 = experiment: Xenopus oocyte voltage clamp of EsemOR19; format: cell-based, Eriocrania semipurpurella; settings: 10^−4 M
From the text: We also examined the response profile of EsemOR19 from E. semipurpurella, an OR that falls close to the HarmOR42-defined clade but that is not considered as a HarmOR42 ortholog. […] We also characterized the function of RnubOR13 from R. nubila (Trichoptera), a species from a sister order of Lepidoptera. […] Unfortunately, the putative E. semipurpurella OR that would consist of EsemOR34 + 35 and that falls at the base of the HarmOR42 clade could not be tested as it is incomplete.
Full-length coding sequences of 45 ORs (including Orco) of H. armigera, and OR42 and Orco orthologs in B. mori, H. assulta, G. molesta, and M. separate were amplified from the antennal cDNA of each species adults by PCR with specific primer pairs of each gene. […]
Functional characterization of individual ORs was performed by heterologous expression in Xenopus oocytes combined with a two-electrode voltage-clamp system ([Wang et al. 2010]). […] After incubation in nutrient solution at 18 °C for 3–5 days, the response profile of each oocyte to multiple plant odorants was recorded via a two-electrode voltage clamp (OC-725C oocyte clamp, Warner Instruments, Hamden, CT) at a holding potential of −80 mV. Data were acquired by using a Digidata 1440 A and were analyzed by pCLAMP 10.2 software (Axon Instruments Inc., Union City, CA). […]

[1] = system: H. armigera third instar larvae; experiment: Petri dish choice assay, third instar larvae; format: in vivo, Helicoverpa armigera
Description: Our results provide strong evidence that PAA, via its detection by HarmOR42, is an important host plant cue in both larval and adult stages of H. armigera.
For assessing larval behavior to PAA, the experiments were performed in closed plastic Petri dishes of 15 cm diameter (fig. 6D) as in [Poivet et al. (2013)] with some modifications. To ascertain the choice zone, we tracked the behavior trajectory of larvae to a regular diet. A piece of regular diet nutrition was placed at one of the opposite ends of the dish along the diameter. Ten third instar larvae were placed in the middle of the dish. The location of larvae was marked every 10 min for 1 h. Four replications were performed. Most of the larvae made choices within 40 min, so this time point was selected for choice statistics. For the choice behavior test, PAA and paraffin oil (solvent) were respectively added onto a piece of 1 × 1 cm filter paper and the papers were arranged at opposite ends. The two-choice zones were delineated by 4-cm radius half circles centered at each of the filter papers. The choice indexes (CI) were calculated using the formula: CI = (P − C)/T, where P represents the number of larvae that entered the PAA choice zone, C represents the number of larvae that entered the solvent zone, and T represents the total number of larvae in the test (ten larvae). We first determined the efficient test dose using three different dilutions of PAA (0.1, 1, and 10 μg) against wild-type larvae. The CI of larvae to PAA was compared with a blank (solvent on each side of the dish). […] Therefore, we used 1 μg of PAA to test the choice behavior of mutant larvae. Ten replicates were performed for each test.

Sequence of HarmOR59 (A0A7T3KAU6 entry or part of it): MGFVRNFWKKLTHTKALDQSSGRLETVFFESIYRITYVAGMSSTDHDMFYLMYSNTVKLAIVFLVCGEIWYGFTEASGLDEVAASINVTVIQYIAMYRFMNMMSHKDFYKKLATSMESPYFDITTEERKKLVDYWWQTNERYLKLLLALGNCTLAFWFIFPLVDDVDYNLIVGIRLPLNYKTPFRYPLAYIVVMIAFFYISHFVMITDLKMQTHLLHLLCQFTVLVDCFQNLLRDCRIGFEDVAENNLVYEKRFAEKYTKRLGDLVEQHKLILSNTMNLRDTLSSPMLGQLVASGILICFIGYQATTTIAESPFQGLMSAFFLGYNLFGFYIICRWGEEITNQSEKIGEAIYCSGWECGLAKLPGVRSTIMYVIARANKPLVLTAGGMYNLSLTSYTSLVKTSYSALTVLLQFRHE

O=CCc1ccccc1 [Phenylacetaldehyde]
pEC50 (HarmOR59): 5.16
response of EsemOR19 (EsemOR19): no response
preference of HarmOR42 knock-out mutant larvae ([1]; third instar, knock-out, 1 μg): lost their preference
attractive effect on wild-type larvae ([1]; third instar, wild type, 1 μg, 40 min): significantly attracted
dose giving the most positive choice ([1]; wild-type larvae, 0.1, 1 and 10 μg tested): 1 µg
